The values that follow come from patent US20240217982A1, “KRAS INHIBITORS” (Bristol-Myers Squibb Company, priority 2021, published 2024).

Assay [1] concerns the target T1, KRAS G12D (Homo sapiens (Human), UniProt P01116, G12D). The experiment in a line: KRAS G12D RAF Disruption Assay (HTRF). It counts as biochemical. To be noted: recombinant GMPPNP-loaded KRAS G12D (5 nM), GST-RAF1 RBD (9 nM), HTRF signal. Here is the method:
Recombinant GMPPNP-loaded KRAS G12D (5 nM) was treated with compound at room temperature for 20 minutes in assay buffer (50 mM Tris pH 7.5, 100 mM NaCl, 1 mM MgCl2, 1 mM DTT, 100 ug/mL BSA).

Assay [2] addresses T1, KRAS G12D. The experiment in a line: KRAS G12D Nucleotide Exchange Assay (HTRF). To be noted: recombinant GDP-loaded KRAS G12D (20 nM), BIODIPY-labeled GDP (400 nM), recombinant SOS (10 nM), HTRF signal. The assay is classed as biochemical. Here is the method: Recombinant GDP-loaded KRAS G12D (20 nM) was treated with compound at room temperature for 20 minutes in assay buffer (10 mM Hepes pH 7.4, 150 mM NaCl, 5 mM MgCl2, 0.0025% Igepal-CA630, 0.05% BSA, 1 mM DTT, 0.5 nM SA-Tb). BIODIPY-labeled GDP (400 nM) and recombinant SOS (10 nM) were added, and the reaction was incubated for 30 minutes.
(TR-FRET usually uses a lanthanide donor and a delayed reading to cut background.)

T1 sequence (P01116-2 other isoform, or with tags, fused parts or gaps G12D): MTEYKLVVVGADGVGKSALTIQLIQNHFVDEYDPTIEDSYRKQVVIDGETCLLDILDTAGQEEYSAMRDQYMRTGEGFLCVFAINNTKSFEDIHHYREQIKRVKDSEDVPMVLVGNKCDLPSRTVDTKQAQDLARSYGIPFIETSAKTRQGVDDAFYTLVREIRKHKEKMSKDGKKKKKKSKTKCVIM

On to `CCc1cccc2cc(O)cc(-c3ccc4c(N5CC[C@H]6CC[C@@H](C5)N6)nc(OC[C@@]56CCCN5C[C@H](F)C6)nc4c3F)c12` [Example 11-5, 4-(2-{[(2R,7aS)-2-fluoro-hexahydro-1H-pyrrolizin-7a-yl]methoxy}-4-[(1S,6R)-3,9-diazabicyclo[4.2.1]nonan-3-yl]-8-fluoroquinazolin-7-yl)-5-ethylnaphthalen-2-ol], for which the “KRASG12D RAF Disruption Assay (IC50, µM)” value in assay [1] is 3.2 µM. The “KRASG12D Nucleotide Exchange Assay (IC50, µM)” value in assay [2] is recorded as 0.03 µM.

Take `C#Cc1c(F)ccc2cc(O)cc(-c3ccc4c(N5CC[C@H]6CC[C@@H](C5)N6)nc(OC[C@@]56CCCN5C[C@H](F)C6)nc4c3F)c12` [Example 11-6, 4-(2-{[(2R,7aS)-2-fluoro-hexahydro-1H-pyrrolizin-7a-yl]methoxy}-4-[(1S,6R)-3,9-diazabicyclo[4.2.1]nonan-3-yl]-8-fluoroquinazolin-7-yl)-5-ethynyl-6-fluoronaphthalen-2-ol]: the “KRASG12D RAF Disruption Assay (IC50, µM)” value in assay [1] worked out at 0.17 µM. Moreover, the “KRASG12D Nucleotide Exchange Assay (IC50, µM)” value in assay [2] is listed as 0.02 µM.

On to `Oc1cc(-c2ccc3c(N4CC[C@H]5CC[C@@H](C4)N5)nc(OC[C@@]45CCCN4C[C@H](F)C5)nc3c2F)c2ccccc2c1` [Example 11-7, 4-(2-{[(2R,7aS)-2-fluoro-hexahydro-1H-pyrrolizin-7a-yl]methoxy}-4-[(1S,6R)-3,9-diazabicyclo[4.2.1]nonan-3-yl]-8-fluoroquinazolin-7-yl)naphthalen-2-ol], for which the “KRASG12D RAF Disruption Assay (IC50, µM)” value in assay [1] came out at 5.1 µM. Besides, in assay [2], the “KRASG12D Nucleotide Exchange Assay (IC50, µM)” value is listed as 0.06 µM.

For `CCc1cccc2cccc(-c3ccc4c(N5CC[C@H]6CC[C@@H](C5)N6)nc(OC[C@@]56CCCN5C[C@H](F)C6)nc4c3F)c12` [Example 11-8, 2-{[(2R,7aS)-2-fluoro-hexahydro-1H-pyrrolizin-7a-yl]methoxy}-4-[(1S,6R)-3,9-diazabicyclo[4.2.1]nonan-3-yl]-7-(8-ethylnaphthalen-1-yl)-8-fluoroquinazoline], the “KRASG12D RAF Disruption Assay (IC50, µM)” value in assay [1] amounted to 54.4 µM. Further, in assay [2], the “KRASG12D Nucleotide Exchange Assay (IC50, µM)” value worked out at 2.0 µM.

Turning to `Cc1cc(N)nc(-c2ccc3c(N4CC[C@H]5CC[C@@H](C4)N5)nc(OC[C@@]45CCCN4C[C@H](F)C5)nc3c2F)c1C(F)(F)F` [Example 12-1, 6-(2-{[(2R,7aS)-2-fluoro-hexahydro-1H-pyrrolizin-7a-yl]methoxy}-4-[(1S,6R)-3,9-diazabicyclo[4.2.1]nonan-3-yl]-8-fluoroquinazolin-7-yl)-4-methyl-5-(trifluoromethyl)pyridin-2-amine], the “KRASG12D RAF Disruption Assay (IC50, µM)” value in assay [1] is reported as 6.3 µM. The “KRASG12D Nucleotide Exchange Assay (IC50, µM)” value in assay [2] is on record as 0.03 µM.

For `Cc1cc(N)nc(-c2ccc3c(N4CC[C@H]5CC[C@@H](C4)N5)nc(OC[C@]45CCCN4C[C@H](F)C5)nc3c2F)c1C(F)(F)F` [Example 12-2, 6-(2-{[(2R,7aR)-2-fluoro-hexahydro-1H-pyrrolizin-7a-yl]methoxy}-4-[(1S,6R)-3,9-diazabicyclo[4.2.1]nonan-3-yl]-8-fluoroquinazolin-7-yl)-4-methyl-5-(trifluoromethyl)pyridin-2-amine], the “KRASG12D RAF Disruption Assay (IC50, µM)” value in assay [1] was 80.0 µM. Further, the “KRASG12D Nucleotide Exchange Assay (IC50, µM)” value in assay [2] stood at 0.33 µM.

On to `Cc1cc(N)nc(-c2ccc3c(N4CC[C@H]5CC[C@@H](C4)N5)nc(OCC45CCCN4CC(F)(F)C5)nc3c2F)c1C(F)(F)F` (stereo partly drawn) [Example 12-4, 6-{4-[(1S,6R)-3,9-diazabicyclo[4.2.1]nonan-3-yl]-2-[(2,2-difluoro-hexahydro-1H-pyrrolizin-7a-yl)methoxy]-8-fluoroquinazolin-7-yl}-4-methyl-5-(trifluoromethyl)pyridin-2-amine], for which the “KRASG12D RAF Disruption Assay (IC50, µM)” value in assay [1] was greater than 100 µM. Moreover, in assay [2], the “KRASG12D Nucleotide Exchange Assay (IC50, µM)” value amounted to 1.1 µM.

Consider `Cc1cc(N)nc(-c2c(Cl)cc3c(N4CC[C@H]5CC[C@@H](C4)N5)nc(OC[C@@]45C[C@@H](F)CN4CC4(CC4)C5)nc3c2F)c1C(F)(F)F` [Example 13-1, 6-(2-{[(6′R, 7′aR)-6′-fluoro-hexahydrospiro[cyclopropane-1,2′-pyrrolizine]-7′a-yl]methoxy}-6-chloro-4-[(1S,6R)-3,9-diazabicyclo[4.2.1]nonan-3-yl]-8-fluoroquinazolin-7-yl)-4-methyl-5-(trifluoromethyl)pyridin-2-amine], for which the “KRASG12D RAF Disruption Assay (IC50, µM)” value in assay [1] amounted to 0.22 µM. In addition, the “KRASG12D Nucleotide Exchange Assay (IC50, µM)” value in assay [2] turned out to be 0.01 µM.
